In the NIST ThermoML archive (doi:10.1016/j.jct.2006.11.001):
± gives the expanded uncertainty stated by the source.

Key:
[1] = molar heat capacity at constant pressure; settings: Liquid, thermal relaxation method
[2] = molar heat capacity at constant pressure; xn = mol fraction of the nth substance listed; settings: Liquid, thermal relaxation method

Compound: CO [methanol]
- molar heat capacity at constant pressure ([1]; 280 K, 100 kPa): 77.22 ± 3.2 J/K/mol
- molar heat capacity at constant pressure ([1]; 280 K, 1000 kPa): 74.02 ± 3.2 J/K/mol
- molar heat capacity at constant pressure ([1]; 280 K, 5000 kPa): 73.7 ± 5.8 J/K/mol
- molar heat capacity at constant pressure ([1]; 320 K, 100 kPa): 87.15 ± 1.3 J/K/mol
- molar heat capacity at constant pressure ([1]; 320 K, 1000 kPa): 85.87 ± 3.2 J/K/mol
- molar heat capacity at constant pressure ([1]; 320 K, 5000 kPa): 84.27 ± 2.6 J/K/mol
- molar heat capacity at constant pressure ([1]; 360 K, 1000 kPa): 97.41 ± 1.9 J/K/mol
- molar heat capacity at constant pressure ([1]; 360 K, 5000 kPa): 94.2 ± 1.9 J/K/mol
- molar heat capacity at constant pressure ([1]; 360 K, 10000 kPa): 94.52 ± 2.6 J/K/mol
- molar heat capacity at constant pressure ([1]; 360 K, 15000 kPa): 97.09 ± 3.8 J/K/mol

Compound: CO [methanol] + O
- molar heat capacity at constant pressure ([2]; 280 K, 100 kPa, x1 = 0.0496): 81.21 ± 1.5 J/K/mol
- molar heat capacity at constant pressure ([2]; 280 K, 100 kPa, x1 = 0.101): 82.78 ± 1.6 J/K/mol
- molar heat capacity at constant pressure ([2]; 280 K, 100 kPa, x1 = 0.1936): 82.72 ± 1.7 J/K/mol
- molar heat capacity at constant pressure ([2]; 280 K, 100 kPa, x1 = 0.2606): 82.56 ± 1.7 J/K/mol
- molar heat capacity at constant pressure ([2]; 280 K, 100 kPa, x1 = 0.4949): 79.36 ± 2 J/K/mol
- molar heat capacity at constant pressure ([2]; 280 K, 100 kPa, x1 = 0.7943): 77.85 ± 2.3 J/K/mol
- molar heat capacity at constant pressure ([2]; 280 K, 1000 kPa, x1 = 0.0496): 81.39 ± 1.5 J/K/mol
- molar heat capacity at constant pressure ([2]; 280 K, 1000 kPa, x1 = 0.101): 83.75 ± 1.6 J/K/mol
- molar heat capacity at constant pressure ([2]; 280 K, 1000 kPa, x1 = 0.1936): 85 ± 2.1 J/K/mol
- molar heat capacity at constant pressure ([2]; 280 K, 1000 kPa, x1 = 0.2606): 85.38 ± 2.2 J/K/mol
- molar heat capacity at constant pressure ([2]; 280 K, 1000 kPa, x1 = 0.4949): 82.11 ± 2.5 J/K/mol
- molar heat capacity at constant pressure ([2]; 280 K, 1000 kPa, x1 = 0.7943): 80.76 ± 2.9 J/K/mol
- molar heat capacity at constant pressure ([2]; 280 K, 5000 kPa, x1 = 0.0496): 82.14 ± 4.1 J/K/mol
- molar heat capacity at constant pressure ([2]; 280 K, 5000 kPa, x1 = 0.101): 83.95 ± 4.3 J/K/mol
- molar heat capacity at constant pressure ([2]; 280 K, 5000 kPa, x1 = 0.1936): 85.2 ± 4.1 J/K/mol
- molar heat capacity at constant pressure ([2]; 280 K, 5000 kPa, x1 = 0.2606): 84.52 ± 4.3 J/K/mol
- molar heat capacity at constant pressure ([2]; 280 K, 5000 kPa, x1 = 0.4949): 79.61 ± 5 J/K/mol
- molar heat capacity at constant pressure ([2]; 280 K, 5000 kPa, x1 = 0.7943): 76.97 ± 5.8 J/K/mol
- molar heat capacity at constant pressure ([2]; 320 K, 100 kPa, x1 = 0.0496): 80.27 ± 0.75 J/K/mol
- molar heat capacity at constant pressure ([2]; 320 K, 100 kPa, x1 = 0.101): 84.53 ± 0.78 J/K/mol
- molar heat capacity at constant pressure ([2]; 320 K, 100 kPa, x1 = 0.1936): 87.9 ± 0.83 J/K/mol
- molar heat capacity at constant pressure ([2]; 320 K, 100 kPa, x1 = 0.2606): 89.5 ± 0.87 J/K/mol
- molar heat capacity at constant pressure ([2]; 320 K, 100 kPa, x1 = 0.4949): 89.35 ± 1 J/K/mol
- molar heat capacity at constant pressure ([2]; 320 K, 100 kPa, x1 = 0.7943): 89.22 ± 1.2 J/K/mol
- molar heat capacity at constant pressure ([2]; 320 K, 1000 kPa, x1 = 0.0496): 79.52 ± 2.2 J/K/mol
- molar heat capacity at constant pressure ([2]; 320 K, 1000 kPa, x1 = 0.101): 83.75 ± 2.3 J/K/mol
- molar heat capacity at constant pressure ([2]; 320 K, 1000 kPa, x1 = 0.1936): 88.52 ± 2.5 J/K/mol
- molar heat capacity at constant pressure ([2]; 320 K, 1000 kPa, x1 = 0.2606): 89.72 ± 2.6 J/K/mol
- molar heat capacity at constant pressure ([2]; 320 K, 1000 kPa, x1 = 0.4949): 89.1 ± 3 J/K/mol
- molar heat capacity at constant pressure ([2]; 320 K, 1000 kPa, x1 = 0.7943): 87.76 ± 2.9 J/K/mol
- molar heat capacity at constant pressure ([2]; 320 K, 5000 kPa, x1 = 0.0496): 81.95 ± 1.9 J/K/mol
- molar heat capacity at constant pressure ([2]; 320 K, 5000 kPa, x1 = 0.101): 85.5 ± 1.9 J/K/mol
- molar heat capacity at constant pressure ([2]; 320 K, 5000 kPa, x1 = 0.1936): 89.76 ± 2.1 J/K/mol
- molar heat capacity at constant pressure ([2]; 320 K, 5000 kPa, x1 = 0.2606): 91.67 ± 2.2 J/K/mol
- molar heat capacity at constant pressure ([2]; 320 K, 5000 kPa, x1 = 0.4949): 88.6 ± 2.5 J/K/mol
- molar heat capacity at constant pressure ([2]; 320 K, 5000 kPa, x1 = 0.7943): 87.76 ± 2.9 J/K/mol
- molar heat capacity at constant pressure ([2]; 360 K, 1000 kPa, x1 = 0.0496): 81.02 ± 1.1 J/K/mol
- molar heat capacity at constant pressure ([2]; 360 K, 1000 kPa, x1 = 0.101): 84.72 ± 1.2 J/K/mol
- molar heat capacity at constant pressure ([2]; 360 K, 1000 kPa, x1 = 0.1936): 90.8 ± 1.2 J/K/mol
- molar heat capacity at constant pressure ([2]; 360 K, 1000 kPa, x1 = 0.2606): 92.75 ± 1.3 J/K/mol
- molar heat capacity at constant pressure ([2]; 360 K, 1000 kPa, x1 = 0.4949): 94.34 ± 1.5 J/K/mol
- molar heat capacity at constant pressure ([2]; 360 K, 1000 kPa, x1 = 0.7943): 94.47 ± 1.8 J/K/mol
- molar heat capacity at constant pressure ([2]; 360 K, 5000 kPa, x1 = 0.0496): 80.83 ± 1.1 J/K/mol
- molar heat capacity at constant pressure ([2]; 360 K, 5000 kPa, x1 = 0.101): 84.53 ± 1.2 J/K/mol
- molar heat capacity at constant pressure ([2]; 360 K, 5000 kPa, x1 = 0.1936): 90.59 ± 1.2 J/K/mol
- molar heat capacity at constant pressure ([2]; 360 K, 5000 kPa, x1 = 0.2606): 92.97 ± 1.3 J/K/mol
- molar heat capacity at constant pressure ([2]; 360 K, 5000 kPa, x1 = 0.4949): 93.59 ± 1.5 J/K/mol
- molar heat capacity at constant pressure ([2]; 360 K, 5000 kPa, x1 = 0.7943): 94.47 ± 1.8 J/K/mol
- molar heat capacity at constant pressure ([2]; 360 K, 10000 kPa, x1 = 0.0496): 82.52 ± 1.1 J/K/mol
- molar heat capacity at constant pressure ([2]; 360 K, 10000 kPa, x1 = 0.101): 86.28 ± 1.2 J/K/mol
- molar heat capacity at constant pressure ([2]; 360 K, 10000 kPa, x1 = 0.1936): 92.87 ± 1.2 J/K/mol
- molar heat capacity at constant pressure ([2]; 360 K, 10000 kPa, x1 = 0.2606): 95.35 ± 1.3 J/K/mol
- molar heat capacity at constant pressure ([2]; 360 K, 10000 kPa, x1 = 0.4949): 95.09 ± 1.5 J/K/mol
- molar heat capacity at constant pressure ([2]; 360 K, 10000 kPa, x1 = 0.7943): 95.92 ± 1.8 J/K/mol
- molar heat capacity at constant pressure ([2]; 360 K, 15000 kPa, x1 = 0.0496): 82.52 ± 2.2 J/K/mol
- molar heat capacity at constant pressure ([2]; 360 K, 15000 kPa, x1 = 0.101): 86.67 ± 2.3 J/K/mol
- molar heat capacity at constant pressure ([2]; 360 K, 15000 kPa, x1 = 0.1936): 92.25 ± 2.5 J/K/mol
- molar heat capacity at constant pressure ([2]; 360 K, 15000 kPa, x1 = 0.2606): 95.57 ± 2.6 J/K/mol
- molar heat capacity at constant pressure ([2]; 360 K, 15000 kPa, x1 = 0.4949): 95.58 ± 3 J/K/mol
- molar heat capacity at constant pressure ([2]; 360 K, 15000 kPa, x1 = 0.7943): 95.63 ± 3.5 J/K/mol
